Laboratory results published in patent publication US20240307327A1, “DOSAGE FORMS OF MIRDAMETINIB” (SpringWorks Therapeutics, Inc., priority 2023, published 2024).

Assay: Particle size distribution of mirdametinib drug substance lots (laser diffraction)
Assay type: physicochemical
Settings: mirdametinib free base
Text: As used herein, “D50” or “d50”, also known as the median diameter, corresponds to the value under which 50% of the particles has a lower volume diameter. “D90” or “d90” corresponds to the value under which 90% of the particles has a lower volume diameter. The particle size may be measured using wet standard laser diffraction particle sizing techniques known in the art. One example of an instrument to measure the particle size of the dry powders is the Mastersizer 3000, manufactured by Malvern Panalytical Ltd. (Malvern, UK). As particles are often non-spherical, it is difficult and complex to provide dimensional descriptions of these non-spherical particles. As used herein, “volume diameter” refers to diameter of a sphere with equal volume of the non-spherical particle.
Mirdametinib free base (Lots #1, 2, and 3) having the properties in the table below were prepared.

Structure (SMILES): O=C(NOC[C@H](O)CO)c1ccc(F)c(F)c1Nc1ccc(I)cc1F [Lot 1, N-((R)-2,3-dihydroxypropoxy)-3,4-difluoro-2-(2-fluoro-4-iodo-phenylamino)benzamide]
- D10: 4.9 μm

Structure (SMILES): O=C(NOC[C@H](O)CO)c1ccc(F)c(F)c1Nc1ccc(I)cc1F [Lot 2, N-((R)-2,3-dihydroxypropoxy)-3,4-difluoro-2-(2-fluoro-4-iodo-phenylamino)benzamide]
- D10: 7.6 μm
